Reference: PMC8743659, “C1632 suppresses the migration and proliferation of non‐small‐cell lung cancer cells involving LIN28 and FGFR1 pathway” (Journal of Cellular and Molecular Medicine, 2021)

How the values were obtained:
Assay in all cases: MTT cell viability assay
Format in all cases: cell-based, human
MRC5 cells = details: MRC5, high dose 60 mg/L
Procedure: (§1) The cell viability of MRC5, A549, and A549R were assessed by the 3‐(4,5‐dimethylthiazol‐2‐yl)‐2,5‐diphenyltetrazolium bromide (MTT) assay.[39] Cells were treated with indicated concentration of C1632 or 0.01% DMSO (Control) for 48 h before 20 μl/well MTT (0.5 mg/ml) was added for another 4 h. The reaction product formazan was dissolved in 100 μl DMSO and the absorbance at 560 nm was determined by the spectrophotometer (DTX880, Beckman Coulter).

A549 cells = details: A549, high dose 60 mg/L
Procedure: as §1

A549R cells = details: high dose 60 mg/L
Procedure: as §1

Q: `CC(=O)N(C)c1cccc(-c2ccc3nnc(C)n3n2)c1` [C1632] was tested. Which “cytotoxicity on normal foetal lung fibroblast cells” value (MRC5 cells) did it give?
A: Its value is “almost had no cytotoxicity”.

Q: What about the cell viability (A549 cells) of the same compound?
A: The cell viability was “decreased the viability”.

Q: And the cell viability (A549R cells)?
A: Its cell viability is “decreased the viability”.
